The compounds below were run on HDAC (HeLa cell nuclear extract, a mosaic of HDAC enzymes) (assay: In vitro fluorescent histone deacetylase assay (Biomol HDAC fluorescent activity kit)). Conditions: compound concentration 100 μM; HeLa cell nuclear extract as HDAC source; substrate 50 μM, 10 min, room temperature.
Type: biochemical
Method: Histone deacetylase (HDAC) activity assays were performed using the HDAC fluorescent activity assay/drug discovery kit (Biomol Research Laboratories, Plymouth Meeting, Pa.) essentially according to the manufacturer's instructions. The included HeLa cell nuclear extract, which contains a mosaic of HDAC enzymes and other nuclear factors, was used as the source of HDAC activity. The final substrate concentration in the assay mixture was 50 μM. The reaction was allowed to proceed for 10 min at room temperature before stopping the reaction. Test compounds were prepared as 20 mM stock solutions in DMSO (Molecular Biology grade, Sigma-Aldrich Co., St. Louis, Mo.) and stored at −70° C. Serial dilutions of test compounds were prepared in assay buffer immediately prior to testing. DMSO was determined in a separate trial to have no significant effect on the activity of this assay at concentrations up to 5%; the final DMSO concentration in the wells was no more than 2% and therefore DMSO effects were safely neglected. Assays were performed in white polystyrene 96-well half-area assay plates (Corning, Corning, N.Y.) and measured on a Wallace 1420 fluorescent plate reader (Wallac Oy, Turku, Finland) with an excitation wavelength of 355 nm, an emission wavelength of 460 nm, and a 1 sec signal averaging time.

SMILES	% inhibition HDAC @ 100 μM
O=C(NO)c1cnc(N2CCN(S(=O)(=O)c3cc4ccccc4s3)CC2)s1 [Example 243, 2-[4-(2-benzothiphenesulfonyl)-piperazin-1-yl]-thiazole-5-carboxylic acid hydroxyamide]	99%
CSc1nccc(-c2ccc(S(=O)(=O)N3CCN(c4ncc(C(=O)NO)s4)CC3)s2)n1 [Example 245, 2-[4-(2-{2-methylthiopyrimidine-4-yl}-5-thiophenesulfonyl)-piperazin-1-yl]-thiazole-5-carboxylic acid hydroxyamide]	95%
O=C(NO)c1cnc(N2CCN(S(=O)(=O)c3ccc4nsnc4c3)CC2)s1 [Example 246, 2-[4-(2,1,3-benzothiadiazole-5-sulfonyl)-piperazin-1-yl]-thiazole-5-carboxylic acid hydroxyamide]	98%
O=C(NO)c1cnc(N2CCN(S(=O)(=O)c3ccc(Oc4ccccc4)nc3)CC2)s1 [Example 247, 2-[4-(2-phenoxypyridine-5-sulfonyl)-piperazin-1-yl]-thiazole-5-carboxylic acid hydroxyamide]	96%
O=C(NO)c1cnc(N2CCN(S(=O)(=O)c3cccc(-c4ccccc4)c3)CC2)s1 [Example 251, 2-[4-(3-biphenylsulfonyl)piperazin-1-yl]-thiazole-5-carboxylic acid hydroxyamide]	100%
CCCCS(=O)(=O)N1CCN(c2ncc(C(=O)NO)s2)CC1 [Example 253, 2-[4-(n-butylsulfonyl)-piperazin-1-yl]-thiazole-5-carboxylic acid hydroxyamide]	94%
O=C(NO)c1cnc(N2CCN(S(=O)(=O)c3ccc(Br)s3)CC2)s1 [Example 255, 2-{4-[(5-bromothien-2-yl)sulfonyl]piperazin-1-yl}-N-hydroxy-1,3-thiazole-5-carboxamide]	29%
O=C(NO)c1cnc(N2CCN(S(=O)(=O)c3ccc(-c4ccc5c(c4)OCO5)cc3)CC2)s1 [Example 260, 2-(4-{[4-(1,3-benzodioxol-5-yl)phenyl]sulfonyl}piperazin-1-yl)-1,3-thiazole-5-carboxylic acid hydroxyamide]	99%
O=C(NO)c1cnc(N2CCN(S(=O)(=O)c3ccc(-c4cccc(F)c4)cc3)CC2)s1 [Example 261]	95%
O=C(NO)c1cnc(N2CCN(S(=O)(=O)c3ccc(-c4cccc(CN5CCCCC5)c4)cc3)CC2)s1 [Example 273]	100%
O=C(NO)c1cnc(N2CCN(S(=O)(=O)c3ccc(-c4ccsc4CN4CCCC4)cc3)CC2)s1 [Example 282, 2-(4-[4-{(2-(pyrrolidin-1-ylmethyl)-thien-3-yl)phenylsulfonyl}]piperazin-1-yl)-1,3-thiazole-5-carboxylic acid hydroxyamide]	99%
CN1CCN(Cc2cccc(-c3ccc(S(=O)(=O)N4CCN(c5ncc(C(=O)NO)s5)CC4)cc3)c2)CC1 [Example 284]	100%
CCN(C)Cc1cccc(-c2ccc(S(=O)(=O)N3CCN(c4ncc(C(=O)NO)s4)CC3)cc2)c1 [Example 286, 2-{4-[(3′-[ethyl(methyl)amino]methyl]-1,1′-biphenylsulfonyl]piperazin-1-yl}-1,3-thiazole-5-carboxylic acid hydroxyamide]	99%
CC(C)N(C)Cc1cccc(-c2ccc(S(=O)(=O)N3CCN(c4ncc(C(=O)NO)s4)CC3)cc2)c1 [Example 287, 2-{4-[(3′-[isopropyl(methyl)amino]methyl]-1,1′-biphenylsulfonyl]-piperazin-1-yl}-1,3-thiazole-5-carboxylic acid hydroxyamide]	99%
O=C(NO)c1cnc(N2CCN(S(=O)(=O)c3ccc(-c4ccc(CN5CCCC5)s4)cc3)CC2)s1 [Example 288]	99%
O=C(NO)c1cnc(N2CCN(S(=O)(=O)c3ccc(-c4sccc4CN4CCCC4)cc3)CC2)s1 [Example 289]	99%

Source: patent US20050250784A1 (Miikana Therapeutics Corporation, priority 2004, published 2005)
